What was measured:
[1] = biological target: T1, Human CD73 (amino acid residues 27-549) (Homo sapiens, UniProt P21589); assay: CD73 enzymatic assay (luciferase-based indirect assay, CellTiter-Glo); format: biochemical; conditions: 0.4 nM CD73, 150 μM AMP, 1 hour at room temperature
T1 construct: Human CD73 (amino acid residues 27-549); His tag (N); made in house; host or cells: E. coli
T1 sequence (P21589 27-549): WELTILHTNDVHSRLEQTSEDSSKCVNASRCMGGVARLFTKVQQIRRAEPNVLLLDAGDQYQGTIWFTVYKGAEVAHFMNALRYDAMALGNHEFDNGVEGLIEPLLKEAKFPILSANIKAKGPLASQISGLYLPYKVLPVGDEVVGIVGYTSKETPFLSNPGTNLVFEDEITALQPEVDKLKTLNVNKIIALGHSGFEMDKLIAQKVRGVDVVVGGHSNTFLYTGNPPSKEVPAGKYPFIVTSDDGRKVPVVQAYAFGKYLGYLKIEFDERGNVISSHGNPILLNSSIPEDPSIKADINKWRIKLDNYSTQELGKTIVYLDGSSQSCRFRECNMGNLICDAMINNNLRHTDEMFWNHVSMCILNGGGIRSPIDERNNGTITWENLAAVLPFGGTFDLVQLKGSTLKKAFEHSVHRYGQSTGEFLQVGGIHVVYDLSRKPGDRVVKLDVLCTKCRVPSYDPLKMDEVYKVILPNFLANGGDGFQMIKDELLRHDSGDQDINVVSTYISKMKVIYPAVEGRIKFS
Procedure: CD73 enzymatic activity was measured in a luciferase-based indirect assay using CellTiter-Glo® system from Promega. The luciferase reaction in the presence of ATP is inhibited by AMP, a primary substrate of CD73. Addition of CD73 enzyme to the reaction converts AMP to adenosine, and release the inhibition, producing a luminescent signal. Inhibition of CD73 leads to the decrease of this luminescent signal.
Human CD73 (amino acid residues 27-549) with N-Terminal His tag was purified in E. coli. All the assay components were prepared in 50 mM HEPEs buffer (pH 7.4) with 0.01% Tween-20. The CD73 enzymatic assay was performed using 0.4 nM CD73 and 150 μM AMP. 9.5 μL of CD73 protein and 9.5 μL of AMP were added to the wells of a 384 well plate containing lpL of various concentrations of test compound or DMSO vehicle and incubated for 1 hour at room temperature. 16 wells containing CD73, AMP and 5% DMSO served as high control. 16 wells containing AMP and 5% DMSO served as low control. Enzymatic reaction was stopped and AMP level was measured indirectly by adding 5 μL of CellTiter-Glo® 2.0 reagent and 5 μL of ATP with a final concentration of 1 μM. Following incubation of the plate at room temperature for 30 minutes, luminescent signal was read on a Tecan plate reader. The percentage inhibition at individual concentrations relative to high and low controls was calculated. The data were analyzed by using nonlinear regression to generate IC50 values.

human CD73 = biological target: T2, human CD73 (Homo sapiens, UniProt P21589); assay: Inhibitor activity against CD73 in cell based assay (CD73 expressing CHO-K1 cells); conditions: CHO-K1 cells expressing human CD73, 150 μM AMP, 4 hours of incubation; read-out: CHO-K1 CELL_VARIANT: CD73 IC50
T2 construct: expressed in transfected cells
T2 sequence (P21589 27-549): T1 sequence (P21589 27-549)
Procedure: Determine Inhibitor Activity Against CD73 in Cell Based Assay
CD73 expressing CHO-K1 cell clones were generated upon stable transfection of a plasmid expressing human CD73 under the control of CMV promoter. Cells were selected in Ham's F-12K (Kaighn's) media supplemented with 10% fetal bovine serum and 1 mg/ml G418 at 37° C. in a humidified incubator supplied with 5% CO2. The assays were performed as follows. Cells were seeded in a 96 well plate in 50 μL of culture media at a density of 1×10^4 per well. Compound at a maximal concentration of 5 mM was serially diluted 1:3 in DMSO for a total of 8 point titration. A 2 μL aliquot of each dilution point was added to […] culture media and 25 µL was added to each well, providing 10 μM compound at the maximum concentration point. AMP was diluted in culture media and 25 μL was added to each well with a final concentration of 150 μM. 4 wells containing 0.2% DMSO treated cells and AMP served as high controls and 4 wells containing media only with 0.2% DMSO and AMP served as low controls. After 4 hours of incubation, 20 μL of the supernatant was transferred to a 384 well plate. AMP level in supernatant was measured indirectly by adding 5 μL of CellTiter-Glo® 2.0 reagent and 5 μL of ATP with a final concentration of 1 μM. Following incubation of plate at room temperature for 30 minutes, luminescent signal was read on a Tecan plate reader. The percentage inhibition at individual concentrations relative to high and low controls was calculated. The data were analyzed by using nonlinear regression to generate ICso values.

| IC50 [1] [µM] | IC50 (human CD73) [µM] | Structure (SMILES) |
| --- | --- | --- |
| 0.001 to 10 | 0.001 to 10 | Cc1nn(C)c(C)c1-c1cc(O[C@@H]2CCN(c3cnn(CCO)c(=O)c3Cl)C2)ncn1 [P-0128, (R)-4-chloro-2-(2-hydroxyethyl)-5-(3-((6-(1,3,5-trimethyl-1H-pyrazol-4-yl)pyrimidin-4-yl)oxy)pyrrolidin-1-yl)pyridazin-3(2H)-one] |
| 0.001 to 10 | 0.001 to 10 | Cc1noc(C)c1-c1cc(F)nc(O[C@H]2CN(c3cn[nH]c(=O)c3Cl)C[C@@H]2F)c1 [P-0189, 4-chloro-5-((3S,4S)-3-((4-(3,5-dimethylisoxazol-4-yl)-6-fluoropyridin-2-yl)oxy)-4-fluoropyrrolidin-1-yl)pyridazin-3(2H)-one] |
| 0.001 to 10 | 0.001 to 10 | Cc1nn(C2COC2)c(C)c1-c1cc(O[C@H]2CN(c3cnn(CCO)c(=O)c3Cl)C[C@@H]2F)ncc1F [P-0007, 4-chloro-5-((3S,4S)-3-((4-(3,5-dimethyl-1-(oxetan-3-yl)-1H-pyrazol-4-yl)-5-fluoropyridin-2-yl)oxy)-4-fluoropyrrolidin-1-yl)-2-(2-hydroxyethyl)pyridazin-3(2H)-one] |
| 0.001 to 10 | 0.001 to 10 | O=c1[nH]ncc(N2CC[C@@H](Oc3cc(N4CCN(S(=O)(=O)NC5CC5)CC4)ccn3)C2)c1Cl [P-0229, (R)-4-(2-((1-(5-chloro-6-oxo-1,6-dihydropyridazin-4-yl)pyrrolidin-3-yl)oxy)pyridin-4-yl)-N-cyclopropylpiperazine-1-sulfonamide] |
| 0.001 to 10 | 0.001 to 10 | Cc1ccnc(C(C)C)c1Nc1cccnc1O[C@@H]1CCN(c2cn[nH]c(=O)c2Cl)C1 [P-0105, (R)-4-chloro-5-(3-((3-((2-isopropyl-4-methylpyridin-3-yl)amino)pyridin-2-yl)oxy)pyrrolidin-1-yl)pyridazin-3(2H)-one] |
| 0.001 to 10 | 0.001 to 10 | Cc1nn(CCC#N)c(C)c1-c1ccnc(O[C@@H]2CCN(c3cn[nH]c(=O)c3Cl)C2)c1 [P-0044, (R)-3-(4-(2-((1-(5-chloro-6-oxo-1,6-dihydropyridazin-4-yl)pyrrolidin-3-yl)oxy)pyridin-4-yl)-3,5-dimethyl-1H-pyrazol-1-yl)propanenitrile] |
| 0.001 to 10 | 0.001 to 10 | CN1C2CCC1CN(c1ccnc(O[C@@H]3CCN(c4cn[nH]c(=O)c4Cl)C3)c1)C2 [P-0004, 4-chloro-5-((3R)-3-((4-(8-methyl-3,8-diazabicyclo[3.2.1]octan-3-yl)pyridin-2-yl)oxy)pyrrolidin-1-yl)pyridazin-3(2H)-one] |
| 0.001 to 10 | 0.001 to 10 | CC(C)N1CCN(c2ccnc(O[C@@H]3CCN(c4cn[nH]c(=O)c4Cl)C3)c2)CC1 [P-0003, (R)-4-chloro-5-(3-((4-(4-isopropylpiperazin-1-yl)pyridin-2-yl)oxy)pyrrolidin-1-yl)pyridazin-3(2H)-one] |
| 0.001 to 10 | 0.001 to 10 | CCCNS(=O)(=O)c1cc(F)c(-c2ccnc(O[C@@H]3CCN(c4cn[nH]c(=O)c4Cl)C3)c2)c(F)c1 [P-0208, (R)-4-(2-((1-(5-chloro-6-oxo-1,6-dihydropyridazin-4-yl)pyrrolidin-3-yl)oxy)pyridin-4-yl)-3,5-difluoro-N-propylbenzenesulfonamide] |
| 0.001 to 10 | 0.001 to 10 | O=c1[nH]ncc(N2CC[C@@H](Oc3cc(N4CC5CCC(C4)N5)ccn3)C2)c1Cl [P-0013, 5-((3R)-3-((4-(3,8-diazabicyclo[3.2.1]octan-3-yl)pyridin-2-yl)oxy)pyrrolidin-1-yl)-4-chloropyridazin-3(2H)-one] |
| 0.001 to 10 | 0.001 to 10 | CC1(C)CCCN1c1ccnc(O[C@@H]2CCN(c3cn[nH]c(=O)c3Cl)C2)c1 [P-0079, (R)-4-chloro-5-(3-((4-(2,2-dimethylpyrrolidin-1-yl)pyridin-2-yl)oxy)pyrrolidin-1-yl)pyridazin-3(2H)-one] |
| 0.001 to 10 | 0.001 to 10 | Cc1nn(C)c(C)c1-c1cccc(O[C@@H]2CCN(c3cn[nH]c(=O)c3Cl)C2)c1 [P-0198, (R)-4-chloro-5-(3-(3-(1,3,5-trimethyl-1H-pyrazol-4-yl)phenoxy)pyrrolidin-1-yl)pyridazin-3(2H)-one] |
| 0.001 to 10 | 0.001 to 10 | Cc1nn(C(CO)CCl)c(C)c1-c1ccnc(O[C@@H]2CCN(c3cn[nH]c(=O)c3Cl)C2)c1 (stereo partly drawn) [P-0069, 4-chloro-5-((3R)-3-((4-(1-(1-chloro-3-hydroxypropan-2-yl)-3,5-dimethyl-1H-pyrazol-4-yl)pyridin-2-yl)oxy)pyrrolidin-1-yl)pyridazin-3(2H)-one] |
| 0.001 to 10 | 0.001 to 10 | O=C(Nc1ccc(-c2ccnc(O[C@@H]3CCN(c4cn[nH]c(=O)c4Cl)C3)c2)c(F)c1)NC1CC1 [P-0211, (R)-1-(4-(2-((1-(5-chloro-6-oxo-1,6-dihydropyridazin-4-yl)pyrrolidin-3-yl)oxy)pyridin-4-yl)-3-fluorophenyl)-3-cyclopropylurea] |
| 0.001 to 10 | 0.001 to 10 | CC(C)C(=O)Nc1ccc(-c2ccnc(O[C@@H]3CCN(c4cn[nH]c(=O)c4Cl)C3)c2)c(F)c1 [P-0205, (R)-N-(4-(2-((1-(5-chloro-6-oxo-1,6-dihydropyridazin-4-yl)pyrrolidin-3-yl)oxy)pyridin-4-yl)-3-fluorophenyl)isobutyramide] |
| 0.001 to 10 | 0.001 to 10 | CC(C)(O)Cn1cc(-c2ccnc(O[C@@H]3CCN(c4cn[nH]c(=O)c4Cl)C3)c2)cn1 [P-0228, (R)-4-chloro-5-(3-((4-(1-(2-hydroxy-2-methylpropyl)-1H-pyrazol-4-yl)pyridin-2-yl)oxy)pyrrolidin-1-yl)pyridazin-3(2H)-one] |
| 0.001 to 10 | 0.001 to 10 | Cc1noc(C)c1-c1cc(F)nc(O[C@H]2CN(c3cnn(CCO)c(=O)c3Cl)C[C@@H]2F)c1 [P-0188, 4-chloro-5-((3S,4S)-3-((4-(3,5-dimethylisoxazol-4-yl)-6-fluoropyridin-2-yl)oxy)-4-fluoropyrrolidin-1-yl)-2-(2-hydroxyethyl)pyridazin-3(2H)-one] |
| 0.001 to 10 | 0.001 to 10 | Cc1noc(C)c1-c1cc(O[C@@H]2CCN(c3cn[nH]c(=O)c3Cl)C2)ncn1 [P-0182, (R)-4-chloro-5-(3-((6-(3,5-dimethylisoxazol-4-yl)pyrimidin-4-yl)oxy)pyrrolidin-1-yl)pyridazin-3(2H)-one] |
| 0.001 to 10 | 0.001 to 10 | Cc1noc(C)c1-c1ccnc(O[C@@H]2CCN(c3cn[nH]c(=O)c3C#N)C2)c1 [P-0063, (R)-5-(3-((4-(3,5-dimethylisoxazol-4-yl)pyridin-2-yl)oxy)pyrrolidin-1-yl)-3-oxo-2,3-dihydropyridazine-4-carbonitrile] |
| 0.001 to 10 | 0.001 to 10 | O=c1[nH]ncc(N2CC[C@@H](Oc3cc(C4CCCCC4)ccn3)C2)c1Cl [P-0085, (R)-4-chloro-5-(3-((4-cyclohexylpyridin-2-yl)oxy)pyrrolidin-1-yl)pyridazin-3(2H)-one] |
